Source: US20140242599A1, “MATERIALS AND METHODS FOR DETERMINING SENSITIVITY POTENTIAL OF COMPOUNDS” (ELECTROPHORETICS LIMITED, priority 2011, published 2014)

Key:
[1] = test system: Aldo-keto reductase family 1, member C2 (AKR1C2); assay: Western Blot quantification of AKR1C2 in keratinocyte cell extracts; format: cell-based; settings: primary human keratinocytes, 24 h exposure, FIG. 4
Protocol: (§1) Primary human keratinocytes were obtained from Provitro (Berlin, Germany). Cells were seeded at 3×10E5 cells per 10 cm dish. Cells were grown in serum free supplemented keratinocyte growth medium (Provitro) to 80-90% density prior to treatment. Cells were grown at 37° C. in 5% CO2. Second and third passages post-cryopreserved seedings were used for experiments
(§2) Test chemicals were added and the plates were incubated for 24 hours at 37° C. in a 5% CO2 humidified incubator. When a chemical was dissolved in DMSO, a final concentration of 0.1% DMSO was used in the relevant negative control. After 24 h incubation, cells were harvested and washed twice in PBS.
Cells were lysed in four volumes of 100 mM TEAB (triethylammonium bicarbonate), pH 8.5+0.1, 1 mM TCEP (tris[2-carboxyethyl]phosphine*HCl), 0.1% SDS. After suspending the cell pellet in lysis buffer the suspension was heated at 95° C. for ten minutes in a thermomixer ([Eppendorf, Thermomixer comfort). […]
(§3) As an alternative approach to find predictive markers for sensitizing potential we measured the concentration of biomarkers using commercially available immunoassays to measure the levels of three biomarkers. The three proteins to be measured by Western Blot or ELISA were selected on the basis of a review of literature references to biomarkers of stress toxicity pathways. […]

[2] = mouse, in vivo; cited from earlier work
[3] = test system: Heat shock 70 kDa protein 1 (HSP70, HSPA1A; HSPA1B); assay: HSP70-specific ELISA of keratinocyte cell extracts; format: cell-based; settings: primary human keratinocytes, 24 h exposure, FIG. 3
[4] = test system: Nrf2 pathway; settings: cited from earlier work
[5] = test system: Primary human keratinocytes; assay: TMT proteomic profiling of exposed keratinocytes, PLS score plot of 102 protein biomarkers; format: cell-based; settings: second study, four donors, FIG. 2
[6] = test system: Metallothionein-1G (MT1G); assay: Western Blot quantification of MT1G in keratinocyte cell extracts; format: cell-based; settings: primary human keratinocytes, 24 h exposure, FIG. 5
Protocol: as §1, §2
Cells were lysed in four volumes of 100 mM TEAB (triethylammonium bicarbonate), pH 8.5+0.1, 1 mM TCEP (tris[2-carboxyethyl]phosphine*HCl), 0.1% SDS. […]
as §3
. […] Effects of contact sensitizers and irritants on MT1G production was determined by Western Blot analysis using MT1G specific antibodies (clone UC1MT, Biozol, Eching, Germany). […]

[7] = test system: luciferase gene under the control of the ARE of the AKR1C2 gene in HaCaT keratinocytes; settings: screen of 43 sensitizers and 24 non-sensitizers; cited from earlier work

Row | Structure (SMILES) | AKR1C2 induction (Western Blot) [1] | LLNA EC3 (%) [2] [%] | LLNA outcome / sensitizer potency class [2] | HSP70 induction (ELISA) [3] | reactivity of BDKs, NEHKs and THP-1 (Nrf2 pathway) [4] | relative distance from the centre of the PLS score plot (size of response) [5] | MT1G induction (Western Blot) [6] | KeratinoSens identification of sensitizer [7]
1 | O=CC=Cc1ccccc1 [CA, 3-phenyl-2-Propenal] | only induced in CA exposed samples | 2.8 | (moderate) | most strongly induced | – | – | – | –
2 | O=[N+]([O-])c1ccc(Cl)c([N+](=O)[O-])c1 [DNCB, 1-chloro-2,4-dinitrobenzene] | – | – | – | small | high reactivity | – | – | –
3 | CN(C)C(=S)SSC(=S)N(C)C [TMTD, Tetramethyl thiuram disulfide] | – | 5.2 | (moderate) | most strongly induced | – | smaller distance to the centre of the plot | most strongly induced | –
4 | O=C(Oc1ccccc1)c1ccccc1 [phenyl benzoate] | – | – | – | – | – | – | – | false negative
